Values of other authors in US6004792A, “Human lysophospholipase” (Incyte Pharmaceuticals, Inc., priority 1998, dated 1999).

Target: T1, monomeric 24 kD lysophospholipase (LPL) from rat liver (GI 1552244; SEQ ID NO:3) (Rattus norvegicus, UniProt P70470)
T1 construct: isolated a monomeric, 24 kD LPL from rat liver; host or cells: rat liver (enzyme isolated from tissue, Sugimoto et al. 1996)
Settings: substrate 1-palmitoyl-glycero-3-phosphocholine

T1 sequence (P70470 whole entry): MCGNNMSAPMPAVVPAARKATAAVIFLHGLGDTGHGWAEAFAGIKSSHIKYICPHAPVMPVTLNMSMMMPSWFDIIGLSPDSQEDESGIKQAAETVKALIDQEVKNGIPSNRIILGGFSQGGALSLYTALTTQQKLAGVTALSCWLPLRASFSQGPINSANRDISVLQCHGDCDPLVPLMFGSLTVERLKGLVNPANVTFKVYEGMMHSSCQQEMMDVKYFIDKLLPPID

For `CCCCCCCCCCCCCCCC(=O)OCC(O)COP(=O)([O-])OCC[N+](C)(C)C` (stereo not shown) [1-palmitoyl-glycero-3-phosphocholine], the Vmax is given as 1.55 µM/min/mg.
